Measurements published in patent publication US9278924B2, “5-nonyloxytryptamine and related intracellular PH acidifiers for the treatment and prevention of cancer” (THE JOHNS HOPKINS UNIVERSITY, priority 2011, dated 2016).
pIC50: −log10 of the molar value. Counter-ions that a name gives are not always drawn. The star is where a group is joined. Cbz = O=C(OCc1ccccc1)*; CH2F = FC*

Key:
GBM neurosphere lines = assay: cAMP GLO assay of cellular cAMP levels; format: cell-based; conditions: three GBM neurosphere lines
Text: In this assay cAMP levels are inversely correlated with luminescence (RLU). Cyanopindolol is a Gα antagonist and is required for detection of 5HTR1B activity. Sumatriptan, another 5HTR1B agonist (similar to 5-NOTO), and forskolin {a known Gα agonist) were used as controls.
The Serotonin Receptors 5HTR1B and 5HTR1A are Not the Target Of 5-NOTO Action in GBM. 5-NOTO is not an FDA approved drug but its biological target is known. 5-NOTO is a specific agonist for the 5HTR1B serotonin receptor (400 times more specific for 5HTR1B then for 5HTR1A). 5HTR1B (as well as other 5HTR1 isoforms) are heterotrimeric G-protein coupled receptors which interact with Gα an inhibitor of adenylate cyclase. Therefore, we sought to determine if treatment with 5-NOTO will result in decreased cellular cAMP levels as activation of Gα should inhibit adenylate cydase, the enzyme which catalyzes the conversion of ATP to cAMP. To this end, cells were treated with cyanopindolol, an antagonist of 5HTR1B, which should increase adenylate cyclase activity (if 5HTR1B is functional), and either 5-NOTO or sumatriptan, the latter being similar to 5-NOTO, activating both 5HTR1B and 5HTR1A. […] Importantly, sumatriptan also had no effect on cellular cAMP levels, strengthening the notion that 5HTR1B (and likely 5HTR1A) have very little to no effect on cellular cAMP levels in the GBM models.

020913 neurospheres = assay: ATPlite luminescence assay of cellular ATP; format: cell-based; conditions: 1 μM and 10 μM, 1 or 3 hours
Experimental: Cells were incubated for either 1 or 3 hours in the presence of DMSO (control) or 5-NOTO (1 μM and 10 μM), ATP levels were determined using ATPlite Luminescence Assay System (PerkinElmer) according to manufacturer instructions.
5-NOTO Induces Rapid Necrosis in GBM Neurospheres. One of the classical features of necrotic cells is rapid and significant drop in intracellular ATP levels. The effect of 5-NOTO on ATP release was assayed at 1 hr and 3 hr post-treatment as follows. Briefly, 020913 neurospheres were triturated to a single-cell suspension and 20,000 cells were plated per well. Cells were plated in triplicates for vehicle alone, 1 μM 5-NOTO, and 10 μM 5-NOTO. At each time point, 100 μl of ATPlite 1-step reagent (Perkin Elmer) was added to each well and incubated with shaking for 2 minutes. After dark adaptation for 10 minutes, the samples were read using a microplate reader (Perkin Elmer). Readings were averaged and the percent differences in ATP release between treated and vehicle alone were calculated (RLU). This experiment was performed in triplicate with similar results (FIG. 6).

GBM neurospheres 020913 = assay: Necrosis by Nexin staining and flow cytometry, 90 minutes; format: cell-based; conditions: 10 μM, DMSO 13%
Experimental: (§1) FIG. 9 depicts induction of necrotic cell death by 5-NOTO. GBM neurospheres 020913 and 040622 and normal neural stem cells immortalized with v-Myc (VNSC) were treated with DMSO (control, black bars) or with 10 μM 5-NOTO (red bars). Cells were treated for 90 minutes and then processed for viability assay using Nexin staining % Necrosis was determined by flow cytometry. […] VNSCs on the other hand were completely resistant to 5-NOTO showing 26% and 25% in DMSO and 5-NOTO treatments, respectively.
as §1, with “Induction” for “FIG. 9 depicts induction”, “Necrotic Cell Death” for “necrotic cell death”, “5-NOTO.” for “5-NOTO (red bars).”

GBM neurospheres 040622 = assay: as above; format: cell-based; conditions: 10 μM, DMSO 5%
Experimental: as §1
as §1, with “Induction” for “FIG. 9 depicts induction”, “Necrotic Cell Death” for “necrotic cell death”, “5-NOTO.” for “5-NOTO (red bars).”

[1] = tested on: normal neural stem cells immortalized with v-Myc (VNSC); assay: as above; format: cell-based; conditions: 10 μM, DMSO 26%
Experimental: as §1
as §1, with “Induction” for “FIG. 9 depicts induction”, “Necrotic Cell Death” for “necrotic cell death”, “5-NOTO.” for “5-NOTO (red bars).”

[2] = tested on: GBM-derived neurosphere line 020913; assay: Guava ViaCount viability assay; format: cell-based; conditions: 48 h, read-out: percent viability
Experimental: (§2) Cells were plated in 24-well plates and treated with DMSO or t 10 μM 5-NOTO. 48 hours later, cell viability was determined using Guava PCA flow cytometer with Guava ViaCount reagent.
(§3) We next sought to examine if 5-NOTO is generally cytotoxic or if its cytotoxicity may be specific to some cancer types. To this end, we examined the apoptotic induction in a uveal melanoma cell line, OCM 1. Cells were treated for 48 hours with 10 μM of 5-NOTO followed by Viacount assay. 5-NOTO had no effect on viability of OCM1 as the percentage of viable cells remained greater than 90% (FIG. 8). In contrast, percent viability in 020913 neurospheres treated with 10 μM 5-NOTO was only 10%.

[3] = Guava ViaCount viability assay; format: cell-based; conditions: human, uveal melanoma cell line OCM1, read-out: percentage of viable cells
Experimental: as §2, §3

[4] = molecular target: 5HTR1B serotonin receptor (Homo sapiens, UniProt P28222); conditions: agonist; cited from earlier work
Chain of 5HTR1B serotonin receptor (P28222 whole entry): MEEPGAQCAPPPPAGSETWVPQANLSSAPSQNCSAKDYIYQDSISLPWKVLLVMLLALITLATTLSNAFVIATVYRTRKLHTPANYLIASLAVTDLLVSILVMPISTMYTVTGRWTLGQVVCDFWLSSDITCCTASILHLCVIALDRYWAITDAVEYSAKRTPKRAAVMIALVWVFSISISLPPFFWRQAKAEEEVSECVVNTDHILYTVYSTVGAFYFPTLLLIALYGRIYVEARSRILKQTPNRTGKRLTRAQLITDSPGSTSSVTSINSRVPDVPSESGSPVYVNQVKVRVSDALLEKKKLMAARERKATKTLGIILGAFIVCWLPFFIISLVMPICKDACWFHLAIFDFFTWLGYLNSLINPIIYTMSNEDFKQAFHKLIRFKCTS

040622 GBM neurospheres [5] = assay: Annexin V apoptosis assay; format: cell-based; conditions: 10 μM, 24 hours; DMSO 10-20%
Experimental: (§4) FIG. 4 depicts apoptosis analysis for GBM neurospheres treated with 5-NOTO for 24 hours. Cells were plated and then treated for 24 hours with DMSO (control), 1 μM and 10 μM 5-NOTO. Cells were then processed for Annexin V assay using the Nexin reagent (Millipore) and % Annexin positive cells was determined using flow cytometry.
(§5) 5-NOTO Induces Apoptosis in GBM Neurospheres. To ascertain that 5-NOTO induces apoptosis, cells were treated with DMSO (control), 1 μM, and 10 μM 5-NOTO for 24 hours at which point cells were processed for Annexin V apoptosis assay (Millipore), which is a simple and effective method to detect one of the earliest events in apoptosis, the externalization of phosphatidylserine in living cells. […] Higher levels of 5-NOTO (100 μM) eliminated the vast majority of viable cells (80-90%) 48 hours post treatment (Data not shown)).

020913 GBM neurospheres = assay: Annexin V apoptosis assay; format: cell-based; conditions: 10 μM, 24 hours; DMSO 10-20%
Experimental: as §4, §5

040821 GBM neurospheres = assay: Annexin V apoptosis assay; format: cell-based; conditions: 10 μM, 24 hours; DMSO 10-20%
Experimental: as §4, §5

[6] = tested on: GBM-derived neurosphere cell lines; assay: MTT growth assay; format: cell-based; conditions: 72 h, read-out: inhibition of growth (viable cell mass, MTT)
Experimental: FIG. 2 depicts MTT growth assays for neurospheres treated with 5-NOTO. Cells were plated in 96-multiwell plates and treated with either DM50 (Control •) or 5-NOTO (at 1 uM ▪ and 10 μM ▴). MTT reagent was added to indirectly measure viable cell mass at each time point. Absorbance was measured wt 490 nm using an Epoch Microplate Spectrophotometer (BioTek).
5-NOTO is a Potent Inhibitor of Cancer Cell Growth. To test the hypothesis that as a pH acidifier, 5-NOTO should reduce cell proliferation, we treated three independent GBM-derived neurosphere cell lines with DMSO (control), 1 μM, and 10 μM 5-NOTO for three days. Accumulation of viable cell mass was measured using MTT growth assay (Promega). Absorbance (A490) was measured using an Epoch Microplate Spectrophotometer (Biotek) at the indicated time points.

GBM neurospheres [7] = assay: Elimination of viable cells at high 5-NOTO level; format: cell-based; conditions: 48 h, read-out: viable cells eliminated
Experimental: as §5

GBM neurospheres [8] = assay: Guava ViaCount cell viability, IC50 determination; format: cell-based; conditions: 48 hours, all neurospheres tested; read-out: IC50 (concentration required to kill 50% of the cells)
Experimental: Cells were treated for 48 hours with various concentrations of 5-NOTO and incubated for 48 hours in humidified incubator as which point, Guava Viacount reagent (Millipore) was used to assess the percentage of viable cells remaining in each treatment well. IC50 (concentration of drug required for 50% reduction in cell viability) was calculated using Graphpad 5.0 software package. The respective IC50 is indicated for each neurosphere line.
Determination of cytotoxic effects. We next sought to determine the concentration of 5-NOTO which is required to kill 50% of the cells (e.g. IC50). Cells were plated in 24-well plates at 25,000 cells/well and treated for 48 hours with either DMSO (control) or various concentration of 5-NOTO (FIG. 2). Guava PCA flow cytometry system was used with the Guava Viawunt reagent (Millipore) to determine cell viability. Data was analyzed using GraphPad 5.0 software package. IC50 was calculated using non linear regression.

040622 GBM neurospheres [9] = assay: Apoptosis/necrosis evaluation with Guava Nexin reagent, 30 minutes; format: cell-based
Experimental: Cells were treated with DMSO (control), the multi caspase inhibitor Z-VAD-FMK (20 μM), 5-NOTO (10 μM) or the latter two in combination. Guava Nexin assay reagent was used to determine Viable (black), apoptotic (yellow), and necrotic/apoptotic (Red) cell fractions.
To test necrotic cell death directly, cells were treated with DMSO (control) or 10 μM 5-NOTO for 30 minutes followed by apoptosis/necrosis evaluation using Guava PCA flow cytometer and Nexin reagent (Millipore). […] Similar results were documented for 020913 and 040821 neurospheres (not shown).

Molecule: CNS(=O)(=O)Cc1ccc2[nH]cc(CCN(C)C)c2c1 [sumatriptan]
- effect on cellular cAMP levels (GBM neurosphere lines): no effect

Molecule: CC(C)(C)NCC(O)COc1cccc2[nH]c(C#N)cc12 (stereo not drawn) [Cyanopindolol, cyanopindolol]
- effect on cellular cAMP levels (GBM neurosphere lines): not affected

Molecule: CCCCCCCCCOc1ccc2[nH]cc(CCN)c2c1 [5-NOTO, 5-nonyloxytryptamine oxalate]
- effect on cellular ATP levels (020913 neurospheres): depletes cellular ATP levels in a time and dose dependent fashion
- effect on cellular cAMP levels (GBM neurosphere lines): not affected
- % necrosis (GBM neurospheres 020913): 56%
- % necrosis (GBM neurospheres 040622): 65%
- % necrosis [1]: 25%
- viability at 10 µM [2]: 10%
- viability at 48 h, 10 µM [3]: > 90%
- specificity for 5HTR1B over 5HTR1A [4]: 400 times
- apoptotic cell fraction (Annexin V positive) (040622 GBM neurospheres [5]): more than 60%
- apoptotic cell fraction (Annexin V positive) (020913 GBM neurospheres): > 80%
- apoptotic cell fraction (Annexin V positive) (040821 GBM neurospheres): > 70%
- cytotoxicity at 10 µM [6]: > 90%
- cytotoxicity at 100 µM (GBM neurospheres [7]): 80 to 90%
- pIC50 (GBM neurospheres [8]): ~5.00
- necrotic/dead fraction (040622 GBM neurospheres [9]; 10 μM, 30 minutes, DMSO 15.83%): 54.17%

Molecule: Cbz-Val-Ala-Asp-CH2F [reference compound]
- effect on 5-NOTO-induced necrotic/dead cell fraction (040622 GBM neurospheres [9]; pre-treatment with 20 μM Z-VAD-FMK, then 10 μM 5-NOTO): no effect
